Results: patent publication US11371985B2, “Selection of agents modulating gastrointestinal pain” (BIOGAIA AB, priority 2014, dated 2022)
Values joined by “and” are separate entries in the source; they are usually repeats but may differ in a detail not shown here. Equal values may be shown once.

What was measured:
[1] = system: fibers presumed to be nociceptors; design: species or system Swiss Webster mice
[2] = molecular target: T1, TRPV1 receptor (Mus musculus, UniProt Q704Y3); design: Segments of distal jejunum (˜2.5 cm) with attached mesenteric tissue were removed from freshly killed animals; from tissue; host or cells: mouse distal jejunum with attached mesenteric nerve bundle (ex vivo); species or system Swiss Webster mice
T1 sequence (Q704Y3 whole entry): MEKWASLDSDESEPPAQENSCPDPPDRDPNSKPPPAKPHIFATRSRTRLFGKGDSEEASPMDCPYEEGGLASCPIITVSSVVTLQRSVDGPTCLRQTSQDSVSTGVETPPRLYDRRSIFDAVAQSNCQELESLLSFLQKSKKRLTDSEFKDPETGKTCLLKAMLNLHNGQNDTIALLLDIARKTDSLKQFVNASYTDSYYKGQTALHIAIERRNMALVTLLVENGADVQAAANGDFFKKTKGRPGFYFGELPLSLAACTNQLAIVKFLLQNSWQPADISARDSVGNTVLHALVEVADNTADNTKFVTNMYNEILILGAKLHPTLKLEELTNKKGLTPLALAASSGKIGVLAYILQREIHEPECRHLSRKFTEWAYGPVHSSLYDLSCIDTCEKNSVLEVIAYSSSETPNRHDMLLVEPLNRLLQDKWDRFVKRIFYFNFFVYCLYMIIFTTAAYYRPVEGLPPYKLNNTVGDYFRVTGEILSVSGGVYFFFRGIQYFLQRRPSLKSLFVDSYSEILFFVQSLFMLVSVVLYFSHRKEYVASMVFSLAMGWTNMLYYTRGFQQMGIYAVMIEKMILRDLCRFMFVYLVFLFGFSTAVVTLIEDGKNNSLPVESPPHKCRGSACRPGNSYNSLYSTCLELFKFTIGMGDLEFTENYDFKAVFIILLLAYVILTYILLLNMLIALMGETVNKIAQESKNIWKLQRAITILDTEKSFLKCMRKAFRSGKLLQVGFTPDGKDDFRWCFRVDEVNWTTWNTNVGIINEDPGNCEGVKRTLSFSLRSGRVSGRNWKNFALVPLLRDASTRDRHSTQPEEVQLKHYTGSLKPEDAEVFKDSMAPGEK

[3] = molecular target: T1, TRPV1 receptor; experiment: Capsaicin-induced Ca2+ rise in DRG neuronal primary cultures (Fluo-4 Ca2+ imaging); assay type: cell-based; design: we used Ca^2+ imaging of DRG neuronal primary culture for these experiments; endogenous in cells; host or cells: primary dorsal root ganglion neurons (thoracolumbar levels)
Procedure: The spinal column was removed from the body, transferred to a beaker containing ice-cold Krebs, and bisected longitudinally. DRG were exposed and collected from the thoracolumbar levels. Whole DRG were washed twice with sterile Leibovitz's L-15 medium (GIBCO, Gaithersburg, Md.), and incubated for 40 min in collagenase type 1 at 1 mg/ml (Sigma-Aldrich; Oakville, ON, Canada) and 0.5 ml trypsin (0.25%, GIBCO) in 20 ml L-15 at 37° C. After further addition of 5 ml L-15 containing 10% fetal bovine serum (FBS, GIBCO), the ganglia were centrifuged for 5 min at 1,000 rpm, then washed twice with growth medium (L-15, containing 10% FBS, 1% Penicillin/Streptomycin/Glutamine, 1% HEPES and 1% Na Pyruvate). […]
DRG neurons were placed within a plexiglass recording dish and loaded with the Ca^2+ indicator Fluo-4-AM (8 μM) diluted in Krebs with 0.1% pluronic acid (in DMSO) at 37° C. for 60 min. […] Fluorescence intensity in individual neurons was recorded by Simple PCI 6 software (Compix Inc, Imaging systems, Sewickley, Pa.). […] Images, recorded at 0.9 frame/s, were stored on a local hard drive. Image files were analyzed off-line using Image J software (NIH, USA, http://imagej.nih.gov/ij). The increase in Fluo-4 Ca^2+ when applying capsaicin was measured as the ratio (F/F0) fluorescence intensity after capsaicin (F) divided by the intensity before capsaicin (F0). […]

SMILES	single-unit response to distension [1] [Hz]	capsaicin-evoked excitation with intramural synaptic blockage ([2]; 1 μM capsaicin in presence of 500 nM each ω-Cg-GVIA and ω-Cg-MVIIC, n=12, P=0.947) [%]	capsaicin-evoked excitation (firing frequency increase) ([2]; 1 μM capsaicin serosal, alone (control group), n=17)	maximal response (Top) obtained with capsaicin ([2]; capsaicin alone, increase in firing frequency above baseline) [%]	onset latency of capsaicin-induced firing rate increase ([2]; capsaicin applied to serosal compartment) [s]	Emax ([2]; read-out: maximal response (Top) obtained with capsaicin, capsaicin alone, increase in firing frequency above baseline) [%]	EC50 ([2]; serosal capsaicin 100 nM-100 μM, vagotomized mice, three-parameter logistic fit, read-out: EC50 for capsaicin alone (increase in firing frequency)) [nM]	fluorescence rise ratio F/F0 evoked by capsaicin ([3]; 1 μM capsaicin alone (control group, N=14))	time to increase in intracellular Ca2+ after puffing capsaicin ([3]; 1 μM capsaicin onto DRG neurons) [s]
COc1cc(CNC(=O)CCCCCC(C)C)c(I)cc1O [6-Iodonordihydrocapsaicin]	2.23±0.50								
COc1cc(CNC(=O)CCCC/C=C/C(C)C)ccc1O [capsaicin]		219.1±72.6	187.5±42.9% and 187.5±43%	238±27	~60	238 ± 27.5	200	2.36±0.31	~30
